The target of this assay is T1, PARP (Mus musculus, UniProt P11103).
T1 construct: PARP Activity in Cultured Macrophages, Using a Whole-Cell Based Assay; endogenous in cells; host or cells: murine RAW macrophages (ATCC)
The experiment in a line: PARP activity in cultured macrophages, whole-cell based assay (3H-NAD+ incorporation after hydrogen peroxide). Conditions: murine RAW macrophages, 1 hour pretreatment, hydrogen peroxide 0.5 mM. As for the experimental part:
Effect of Tetracyclic 1H-indeno[1,2-b]pyridine-2(511)-one Analogs on PARP Activity in Cultured Macrophages, Using a Whole-Cell Based Assay
The murine RAW macrophages (ATCC, American Type Culture Collection, Manassas, Va.) were grown in […] (Invitrogen Life Technologies; Carlsbad, Calif.) medium supplemented with 10% heat-inactivated FBS, 2 mM L-glutamine, and 100 U/ml of penicillin and streptomycin. Cells, between passages 5 and 15, were seeded at a density of 250,000 cells/well in 12 well plates and allowed to grow 48 hours before use. Growth medium was changed on the day of use. Cells were treated with a tetracyclic 1H-indeno[1,2-b]pyridine-2(5H)-one analog diluted in a growth medium supplemented with 10% fetal bovine serum (FBS) for 1 hour prior to the addition of hydrogen peroxide (0.5 mM) for a further 25 minutes. For the measurement of PARP activity, media was removed and replaced with 0.5 ml of the assay buffer (56 mM HEPES-pH 7.5, 28 mM KCl, 28 mM NaCl, 2 mM MgCl2, 0.01% digitonin, and 0.5 μCi/ml of ^3H-NAD^+) for 20 minutes. After aspirating the assay buffer, cells were lysed and transferred to eppendorf tubes containing 250 μl of 50% ice-cold trichloroacetic acid (TCA), which were then placed at 4° C. for 4 hours. Samples were centrifuged at 10,000 g for 10 minutes and supernatant removed. The pellets were washed twice with 500 μl of ice-cold 5% w/v TCA. The pellets were then solubilized in 250 μl of NaOH (0.1 M) containing 2% SDS overnight at 37° C. and the PARP activity was then determined by measuring the radioactivity incorporated using a Wallac scintillation counter. The solubilized protein (250 μl) was mixed with 5 ml of scintillation fluid (ScintiSafe Plus, Fisher Scientific) before being counted for 3 minutes. EC50 values were determined from a dose-response curve.

Where a name gives a salt, the structure may show the parent alone.

T1 sequence (P11103 whole entry): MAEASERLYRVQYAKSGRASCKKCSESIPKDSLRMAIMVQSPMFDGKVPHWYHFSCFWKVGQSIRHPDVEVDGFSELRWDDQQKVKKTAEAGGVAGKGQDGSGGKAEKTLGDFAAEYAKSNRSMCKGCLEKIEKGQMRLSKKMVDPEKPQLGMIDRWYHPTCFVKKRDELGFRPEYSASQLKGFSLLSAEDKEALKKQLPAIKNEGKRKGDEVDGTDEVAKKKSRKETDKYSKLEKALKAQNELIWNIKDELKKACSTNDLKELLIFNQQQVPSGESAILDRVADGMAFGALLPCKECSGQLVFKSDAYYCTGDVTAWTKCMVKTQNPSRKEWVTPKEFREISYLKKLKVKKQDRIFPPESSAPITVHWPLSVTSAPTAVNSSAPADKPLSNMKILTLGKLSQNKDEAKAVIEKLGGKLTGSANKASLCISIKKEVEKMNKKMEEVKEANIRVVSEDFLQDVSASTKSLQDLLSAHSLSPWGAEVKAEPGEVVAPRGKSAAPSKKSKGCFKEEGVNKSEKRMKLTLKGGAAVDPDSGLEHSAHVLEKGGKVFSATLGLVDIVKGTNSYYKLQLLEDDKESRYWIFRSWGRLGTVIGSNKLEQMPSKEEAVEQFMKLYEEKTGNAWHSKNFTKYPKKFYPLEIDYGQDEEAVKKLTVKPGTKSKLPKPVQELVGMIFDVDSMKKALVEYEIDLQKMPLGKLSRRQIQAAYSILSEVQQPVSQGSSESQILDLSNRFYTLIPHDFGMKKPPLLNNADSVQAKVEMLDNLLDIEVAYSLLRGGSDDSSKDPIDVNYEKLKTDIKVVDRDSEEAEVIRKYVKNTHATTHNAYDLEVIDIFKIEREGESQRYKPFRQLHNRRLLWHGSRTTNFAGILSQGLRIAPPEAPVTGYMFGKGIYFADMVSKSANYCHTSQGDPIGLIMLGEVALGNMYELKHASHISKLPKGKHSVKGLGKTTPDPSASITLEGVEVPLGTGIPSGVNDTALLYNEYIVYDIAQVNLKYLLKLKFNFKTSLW

In the case of `O=c1[nH]c2c(c3c1CCCC3)Cc1c(CN3CCCCC3)cccc1-2` [Example 4, 10-(piperidin-1-ylmethyl)-3,4,6,11-tetrahydro-1H-indeno[1,2-c]isoquinolin-5(2H)-one hydrochloride], the EC50 worked out at 1.5 nM.

As for `O=c1[nH]c2c(c3c1CCCC3)Cc1c(CN3CCCCCC3)cccc1-2` [Example 5, 10-(azepan-1-ylmethyl)-3,4,6,11-tetrahydro-1H-indeno[1,2-c]isoquinolin-5(2H)-one], the EC50 amounted to 7.8 nM.

In the case of `O=c1[nH]c2c(c3c1CCCC3)Cc1c(CN3CCCC3)cccc1-2` [Example 6, 10-(pyrrolidin-1-ylmethyl)-3,4,6,11-tetrahydro-1H-indeno[1,2-c]isoquinolin-5(2H)-one], the EC50 amounted to 8.46 nM.

Turning to `O=c1[nH]c2c(c3c1CCCC3)Cc1c(CN3CCCC3)cccc1-2` [Example 8, 10-(pyrrolidin-1-ylmethyl)-3,4,6,11-tetrahydro-1H-indeno[1,2-c]isoquinolin-5(2H)-one hydrochloride], the EC50 was determined as 8.5 nM.

Regarding `O=c1[nH]c2c(c3c1CCCC3)Cc1c(CN3CCCCCCC3)cccc1-2` [Example 10, 10-(azocan-1-ylmethyl)-3,4,6,11-tetrahydro-1H-indeno[1,2-c]isoquinolin-5(2H)-one], the 50% effective concentration (EC50) worked out at 37 nM.

As for `O=c1[nH]c2c(c3c1CCCC3)Cc1c(CN3CCC(F)(F)CC3)cccc1-2` [Example 12, 10-((4,4-difluoropiperidin-1-yl)methyl)-3,4,6,11-tetrahydro-1H-indeno[1,2-c]isoquinolin-5(2H)-one], the EC50 was 749 nM.

Turning to `O=c1[nH]c2c(c3c1CCCC3)Cc1c(CN3CCSC3)cccc1-2` [Example 13, 10-(thiazolidin-3-ylmethyl)-3,4,6,11-tetrahydro-1H-indeno[1,2-c]isoquinolin-5(2H)-one], the EC50 was found to be 169 nM.

Regarding `CCOC1CCN(Cc2cccc3c2Cc2c-3[nH]c(=O)c3c2CCCC3)CC1` [Example 14, 10-((4-ethoxypiperidin-1-yl)methyl)-3,4,6,11-tetrahydro-1H-indeno[1,2-c]isoquinolin-5(2H)-one mesylate], the EC50 came to 12.7 nM.

Regarding `O=c1[nH]c2c(c3c1CCCC3)Cc1c(CN3CC[C@H](F)C3)cccc1-2` [Example 15, (S)-10-((3-fluoropyrrolidin-1-yl)methyl)-3,4,6,11-tetrahydro-1H-indeno[1,2-c]isoquinolin-5(2H)-one], the concentration for a half-maximal effect (EC50) turned out to be 11.7 nM.

For the compound `O=c1[nH]c2c(c3c1CCCC3)Cc1c(CN3CCC(N4CCCCC4)CC3)cccc1-2` [Example 22, 10-(1,4′-bipiperidin-1′-ylmethyl)-3,4,6,11-tetrahydro-1H-indeno[1,2-c]isoquinolin-5(2H)-one dihydrochloride], the EC50 was 7.8 nM.

On to `COCCNCc1cccc2c1Cc1c-2[nH]c(=O)c2c1CCCC2` [Example 27, 10-((2-methoxyethylamino)methyl)-3,4,6,11-tetrahydro-1H-indeno[1,2-c]isoquinolin-5(2H)-one], for which the EC50 turned out to be 16 nM.

`CN(C)Cc1cccc2c1Cc1c-2[nH]c(=O)c2c1CCCC2` [Example 28]: the EC50 turned out to be 35 nM.

On to `O=c1[nH]c2c(c3c1CCCC3)Cc1c(CO)cccc1-2` [Example 29, 10-(hydroxymethyl)-3,4,6,11-tetrahydro-1H-indeno[1,2-c]isoquinolin-5(2H)-one], for which the EC50 came out at 25 nM.

As for `COC(=O)c1ccc2c(c1)Cc1c-2[nH]c(=O)c2c1CCCC2` [Example 30, methyl 5-oxo-2,3,4,5,6,11-hexahydro-1H-indeno[1,2-c]isoquinoline-9-carboxylate], the EC50 worked out at 250 nM.

Take `O=c1[nH]c2c(c3c1CCCC3)Cc1c(CN3CCNCC3)cccc1-2` [Example 31, 10-(piperazin-1-ylmethyl)-3,4,6,11-tetrahydro-1H-indeno[1,2-c]isoquinolin-5(2H)-one]: the EC50 was found to be 80 nM.

As for `O=c1[nH]c2c(c3c1CCCC3)Cc1cc(CO)ccc1-2` [Example 33, 9-(hydroxymethyl)-3,4,6,11-tetrahydro-1H-indeno[1,2-c]isoquinolin-5(2H)-one], the EC50 came to 95 nM.

Regarding `CCCN1CCN(Cc2ccc3c(c2)Cc2c-3[nH]c(=O)c3c2CCCC3)CC1` [Example 34, 9-((4-propylpiperazin-1-yl)methyl)-3,4,6,11-tetrahydro-M-indeno[1,2-c]isoquinolin-5(2H)-one], the EC50 came out at 200 nM.

As for `COCCN1CCN(Cc2ccc3c(c2)Cc2c-3[nH]c(=O)c3c2CCCC3)CC1` [Example 35, 9-((4-(2-methoxyethyl)piperazin-1-yl)methyl)-3,4,6,11-tetrahydro-1H-indeno[1,2-c]isoquinolin-5(2H)-one], the EC50 was found to be 300 nM.

For `O=c1[nH]c2c(c3c1CCCC3)Cc1cc(CN3CCOCC3)ccc1-2` [Example 37, 9-(morpholinomethyl)-3,4,6,1′-tetrahydro-4H-indeno[1,2-c]isoquinolin-5(2H)-one], the EC50 stood at 300 nM.

In the case of `O=c1[nH]c2c(c3c1CCCC3)Cc1cc(CN3CCC(O)CC3)ccc1-2` [Example 38, 9-((4-hydroxypiperidin-1-yl)methyl)-3,4,6,11-tetrahydro-1H-indeno[1,2-c]isoquinolin-5(2H)-one], the EC50 came out at 300 nM.

With `O=c1[nH]c2c(c3c1CCCC3)Cc1cc(CN3CCCC3)ccc1-2` [Example 39, 9-(pyrrolidin-1-ylmethyl)-3,4,6,11-tetrahydro-1H-indeno[1,2-c]isoquinolin-5(2H)-one], the EC50 is 100 nM.

`O=c1[nH]c2c(c3c1CCCC3)Cc1cc(CNC3CCCC3)ccc1-2` [Example 40, 9-((cyclopentylamino)methyl)-3,4,6,11-tetrahydro-1H-indeno[1,2-c]isoquinolin-5(2H)-one]: the EC50 came out at 60 nM.

Consider `CCCCN1CCN(Cc2ccc3c(c2)Cc2c-3[nH]c(=O)c3c2CCCC3)CC1` [Example 44, 9-((4-butylpiperazin-1-yl)methyl)-3,4,6,11-tetrahydro-4H-indeno[1,2-c]isoquinolin-5(2H)-one], for which the EC50 was determined as 200 nM.

Turning to `CC(C)(N)c1cccc2c1Cc1c-2[nH]c(=O)c2c1CCCC2` [Example 46, 10-(2-aminopropan-2-yl)-3,4,6,11-tetrahydro-1H-indeno[1,2-c]isoquinolin-5(2H)-one], the EC50 is 8 nM.

For `O=c1[nH]c2c(c3ccsc13)Cc1c(CN3CCC(C(F)(F)F)CC3)cccc1-2` [Example 47, 9-((4-(trifluoromethyl)piperidin-1-yl)methyl)-5,10-dihydro-4H-indeno[1,2-b]thieno[3,2-d]pyridin-4-one], the EC50 stood at 9 nM.

Turning to `O=c1[nH]c2c(c3sccc13)Cc1c(CN3CCC(C(F)(F)F)CC3)cccc1-2` [Example 54, 9-((4-(trifluoromethyl)piperidin-1-yl)methyl)-5,10-dihydro-4H-indeno[1,2-b]thieno[2,3-d]pyridin-4-one], the EC50 was over 500 nM.

`O=c1[nH]c2c(c3ncccc13)Cc1c(CO)cccc1-2` [Example 57, 10-(hydroxymethyl)-6,11-dihydro-5H-indeno[1,2-h][1,6]naphthyridin-5-one]: the EC50 was 334 nM.

As to `COC(=O)c1cccc2c1Cc1c-2[nH]c(=O)c2c1CCCC2` [Example 63, methyl 5-oxo-2,3,4,5,6,11-hexahydro-1H-indeno[1,2-c]isoquinoline-10-carboxylate], the EC50 was 100 nM.

As for `CCN(CC)Cc1ccc2c(c1)Cc1c-2[nH]c(=O)c2c1CCCC2` [Example 64, 9-((diethylamino)methyl)-3,4,6,11-tetrahydro-1H-indeno[1,2-c]isoquinolin-5(2H)-one], the EC50 worked out at 4.48 nM.

Source of the values: patent publication US20100261706A1, “SUBSTITUTED TETRACYCLIC 1H-INDENO [1,2-B]PYRIDINE-2(5H)-ONE ANALOGS THEREOF AND USES THEREOF” (INOTEK PHARMACEUTICALS CORPORATION, priority 2008, published 2010).
